Several values for one entry are separate records, joined by “and”; a condition that tells them apart may be missing. Identical values can stand only once. Like-named read-outs stand apart in the source and are kept apart here. Marks after values point to notes of the source that are not given here. Each block holds one compound with its values, some of them ahead of it.
Assays:
[1] = Parallel artificial membrane permeability assay (PAMPA); format: in vitro ADME
[2] = design: method as in PMID 26085270; conditions: pH 7.4; cited from earlier work
[3] = design: method as in PMID 26085270; conditions: mouse, iv dose 1 mg/kg; cited from earlier work
[4] = design: method as in PMID 26085270; conditions: male Sprague Dawley rat, intravenous at 1 mg/kg; cited from earlier work
[5] = design: method as in PMID 26085270; conditions: potentiometric titration, value in parentheses; cited from earlier work
[6] = tested on: P. berghei ANKA strain; assay: In vivo antimalarial efficacy in the P. berghei mouse model (Peter's test); design: species or system Plasmodium berghei in female NMRI mice; conditions: for cure / inhibition in vivo at 1 mg/kg: once daily; for cure: mice cured / mice in group; for inhibition in vivo at 1 mg/kg: Plasmodium berghei, po, 96 h, 4 × 1 mg/kg oral, read-out: activity (reduction of parasitemia)
Procedure: Compound 41 was dosed as a bolus solution intravenously at 1 mg free base/kg (dose volume: 5 mL/kg; dose vehicle: 5% DMSO;saline) or by gavage orally as solution at 3 mg free base/kg (dose volume: 10 mL/kg; Dose vehicle: 0.5% w/v hydroxypropylmethylcellulose with 0.4% v/v Tween 80 and 0.5% v/v benzyl alcohol) to male Sprague Dawley rats (n=3/dose route). Blood samples were taken from each rat at 5, 15, 30 min, 1, 2, 4, 6, 8, 24 and 30 h post-dose, mixed with two volumes of distilled water and stored frozen until UPLC/MS/MS analysis.
Pharmacokinetic parameters were derived from the blood concentration time curve for each compound using PKsolutions software v 2.0 (Summit Research Services, USA).
In vivo antimalarial efficacy studies in P. berghei. (Swiss TPH)
In vivo efficacy was conducted as previously described10 with the modification that female NMRI mice (n = 3) were infected with a GFP-transfected P. berghei ANKA strain (donated by A. P. Waters and C. J. Janse, Leiden University, The Netherlands), and parasitaemia determined (96 h after infection) using standard flow cytometry techniques. Compounds 1, 25, 27, 30 and 49 were prepared in 10% DM SO, 40% PEG 400 and 50% water prior to administration orally, once daily for 4 days.
Compounds 40, 41, 43 and 44 were prepared in a non-solubilizing, standard suspension vehicle called HPMC (0.5% [wt/vol] hydroxypropylmethylcellulose, 0.5% [vol/vol] benzyl alcohol, 0.4% [vol/vol] Tween 80, and 0.9% [wt/vol] sodium chloride in water) prior to administration orally, once daily for 4 days. Blood samples were collected on day 4 (96 h after infection) in two volumes water. Animals […]
and then hourly up to 4 h after dosing each day. The animals were selected randomly for each group

[7] = tested on: Pf (3D7); assay: Ligand efficiency metrics (LE, LLE, LELP), selectivity and fold changes; design: species or system Plasmodium falciparum
[8] = design: method as in PMID 26085270; conditions: mouse liver microsome; cited from earlier work
[9] = design: method as in PMID 26085270; conditions: human liver microsome; cited from earlier work
[10] = design: method as in PMID 26085270; conditions: rat liver microsome; cited from earlier work
[11] = design: method as in PMID 26085270; conditions: mouse plasma protein binding; cited from earlier work
[12] = Mammalian cell growth inhibition counter-screen (resazurin); format: cell-based, human; conditions: human, MRC-5 cells (normal diploid human fibroblasts)
Procedure: (§1) Plasmodium falciparum screening
(§2) Assays against P. falciparum were conducted as previously described.1 Cultures of the widely-used malaria reference strain of chloroquine-sensitive Plasmodium falciparum strain 3D7 were maintained in a 5% suspension of human red blood cells (obtained from East of Scotland Blood Transfusion Service, Ninewells Hospital, Dundee) cultured in RPMI 1640 medium (pH 7.3) supplemented with 0.5% Albumax II (Gibco Life Technologies, San Diego, CA), 12 mM sodium bicarbonate, 0.2 mM hypoxanthine and 20 mg/L gentamicin at 37°C, in a humidified atmosphere of 1% O 2, 3% CO2 with a balance of nitrogen. Growth inhibition was quantified using a fluorescence assay utilising the binding of SYBR green to double stranded DNA, which emits a fluorescent signal at 528 nm after excitation at 485nm.2 Mefloquine (potency range 30-60 nM) was used as a drug control to monitor the quality of the assay (Z’ = 0.6 to 0.8, Signal to background >3, where Z’ is a measure of the discrimination between the positive and negative controls on a screen plate). A 96-well [3H]-Hypoxanthine incorporation assay was also developed as a secondary assay in order to validate compounds from the initial screen in an orthogonal platform.3 Compound bioactivity from both assays was expressed as […]
(§3) P. falciparum (panel of resistant strains) in vitro assay. (Swiss TPH)
(§4) All Plasmodium strains were cultured according to Trager and Jensen and are described at www.beiresources.org (resistant strains: K1, W2, 7G8, TM90C2A, D6 and V1/S, sensitive strain:
(§5) NF54). EC50 values were determined in vitro by measuring incorporation of the nucleic acid precursor […]
(§6) Mammalian Cell Growth Inhibition assay
(§7) A counter-screen against normal diploid human fibroblasts (MRC-5 cell line) was carried out to exclude non-selective, and toxic compounds. The assay was essentially carried out as described previously.4 Cells were plated and incubated overnight to allow them to adhere as monolayers. A working stock of each test compound was transferred to an intermediate 384-well plate and pre-diluted with minimum essential media (MEM). The pre-diluted stocks were then transferred onto the cell monolayers, and the plates were incubated for 68 h. Resazurin, to a final concentration of 50 μM, was added to each well, after which plates were incubated for a further 3 h and measured for fluorescence (λex=528 nm, λem=590 nm)
(§8) In vitro Cell Assay Data Analysis.
(§9) All data was processed using IDBS ActivityBase® raw data was converted into per cent inhibition through linear regression by setting the high inhibition control as 100% and the no inhibition control as 0%. Quality control criteria for passing plates were as follows: Z’> 0.5, S:B> 3, %CV(no inhibition < 15 . The formula used to calculate Z’ is 1 3× (St D e v _ hi gh + St D e v _ low) . […]
(§10) All EC50 Curve fitting was undertaken using XLFit version 4.2 using Model 205 with the following 4 parametric equation: y = A + B A A + ($-&) ,where A=% inhibition at bottom, B=% […]
(§11) inhibition at top, C= EC50, D= slope, x= inhibitor concentration and y= % inhibition. […]
(§12) reach 100% of inhibition, B was fixed to 100 only when at least 50% of inhibition was reached.
(§13) Plasmodium falciparum late stage (IV-V) gametocyte high content imaging assay Plasmodium falciparum NF54-pfs16-LUC-GFP stage IV-V Gametocytes were produced as described previously.5 Compounds were solubilized in DMSO and serially diluted in three concentrations per log standard curves in DM SO. One µl of compound was subsequently diluted in 25µl of water (4% DMSO) and 5µl transferred into the base of 384 well PerkinElmer CellCarrier plates. Forty-five µl of stage IV-V gametocytes (10%P in 0.1%H) were added to the imaging plates which were in turn sealed with a gas permeable membrane and incubated at 37°C, 5% CO 2, 5% O2, 90% N2 and 60% humidity […]
(§14) Post incubation, 5µl of MitoTracker® Red CM -H2Xros (MTR) solution (0.66ug/ml) was added to all wells and the plates incubated for a further 16hours. […]

[13] = tested on: Plasmodium falciparum strain 3D7; assay: Plasmodium falciparum screening, SYBR green growth inhibition; format: cell-based; conditions: 3D7, supplementary csv, read-out: Pf (3D7) EC50
Procedure: as §1, §2, §3, §4, §5, §6, §7, §8, §9, §10, §11, §12, §13, §14

[14] = Experimental pKa by potentiometric titration; format: physicochemical; conditions: value in parentheses, read-out: R^3 group pKa, experimental
From the text: Table 4 SAR Study of the R^3 Substituent: Aromatic Groups | column: R^3 group pKa^a

[15] = Intrinsic clearance (Cli) in mouse liver microsomes; format: in vitro ADME; conditions: mouse liver microsome
From the text: as §11, §12, §13
(§15) Post incubation, 5µl of MitoTracker® Red CM -H2Xros (MTR) solution (0.66ug/ml) was added to all wells and the plates incubated for a further 16hours. The assay plates were then imaged and the number of viable gametocytes determined for test compounds plus 0.4%DMSO and 5µM Puromycin.
(§16) (0.4%DMSO) control values. Percent inhibition was plotted against log compound concentration using a 4 parameter log dose, non-linear regression analysis, with sigmoidal dose response (variable slope) curve fit using Prizm 4.0. IC50 values were obtained from this curve fit. The compound testing was performed in duplicate point within two separate experiments.
(§17) Plasmodium berghei ookinete development assay
(§18) Assay was performed as previously reported.6 Briefly blood containing P. berghei CTRPp-GFP gametocytes was rapidly harvested from infected mice and introduced to test compounds pre-diluted in ookinete medium (to induce gamete formation and support ookinete development) in 96-well plates. Plates were incubated in the dark at 21°C for 22 hr before GFP fluorescence intensity measured in a plate reader. % inhibition of ookinete formation was calculated with reference to the fluorescence intensity values of a positive control (20 µM cycloheximide) and a solvent-only negative control (DMSO). All assays were performed in triplicate independent experiments and EC50 values calculated in Graphpad Prism.
(§19) The aqueous solubility of the test compounds was measured using laser nephelometry, as described previously.7 Compounds were subject to serial dilution from 10 mg/mL to 0.5 mg/mL in DMSO. An aliquot was then mixed with MilliQ water to obtain an aqueous dilution plate with a final concentration range of 100 – 5 μg/mL, with a final DMSO concentration of 1.0%. Triplicate aliquots were transferred to a flat bottomed polystyrene plate which was immediately read on the NEPHELOstar (BMG Lab Technologies). The amount of laser scatter caused by insoluble particulates (relative nephelometry units, RNU) was plotted against compound concentration using a segmental regression fit, with the point of inflection being quoted as the compounds aqueous solubility (μg/mL; […]
(§20) Intrinsic Clearance (Cli) experiments
(§21) The procedure was carried out as reported previously.7 Test compound (0.5 µM) was incubated with female CD1 mouse, male sprague-dawley rat or pooled human mixed gender liver microsomes (Xenotech LLC TM; 0.5 mg/mL 50 mM potassium phosphate buffer, pH 7.4) and the reaction initiated […]
by the addition of excess NADPH (8 mg/mL 50 mM potassium phosphate buffer, pH 7.4).
Immediately, at time zero, then at 3, 6, 9, 15 and 30 min an aliquot (50 μL) of the incubation mixture was removed and mixed with acetonitrile (100 μL) to stop the reaction. Internal standard was added to all samples, the samples centrifuged to sediment precipitated protein and the plates then sealed prior to UPLC-MS/MS analysis using a Quattro Premier XE (Waters Corporation, USA).
XLfit (IDBS, UK) was used to calculate the exponential decay and consequently the rate constant (k) from the ratio of peak area of test compound to internal standard at each timepoint. The rate of […]

[16] = Intrinsic clearance (Cli) in rat liver microsomes; format: in vitro ADME; conditions: rat liver microsome
From the text: as §11, §12, §13, §15, §16, §17, §18, §19, §20, §21
(§22) by the addition of excess NADPH (8 mg/mL 50 mM potassium phosphate buffer, pH 7.4). […]

[17] = Intrinsic clearance (Cli) in human liver microsomes; format: in vitro ADME; conditions: human liver microsome
From the text: as §11, §12, §13, §15, §16, §17, §18, §19, §20, §21, §22

[18] = Pf (3D7), relative to the comparator compound of the sentence

Compound: O=C(NCCN1CCCC1)c1cc(-c2ccc(CN3CCOCC3)cc2)nc2ccc(F)cc12 [Compound 2]
increase in permeability ([1]; relative to the earlier lead): more than 30 fold
PAMPA Pe [2]: 7.3 ×10⁻⁶ cm/s
Clb [3]: 12 ^b mL min^–1 kg^–1
Clb [4]: 18 mL min^–1 kg^–1
R^3 group pKa, experimental [5]: 6.8
cure ([6]; 4 × 3 mg/kg oral): 2/3
cure ([6]; 4 × 10 mg/kg oral): 3/3
cure ([6]; 4 × 30 mg/kg oral, 30 mg/kg): complete cure and 3/3
ED90 ([6]; dosed orally for 4 days): 0.1 to 0.3 mg/kg
LLE (ligand-lipophilicity efficiency) [7]: 5.9
improvement / increase in potency [7, 18]: 70 fold
MLM Cli [8]: <0.5 mL min^–1 g^–1
HLM Cli [9]: ≤1.1 mL min^–1 g^–1
RLM Cli [10]: ≤0.8 mL min^–1 g^–1
PPB [11]: 63%

Compound: Cc1ccc(-c2cc(C(=O)Nc3cccnc3)c3ccccc3n2)cc1 [Compound 12, N-(Pyridine-3-yl)-2-(p-tolyl)quinoline-4-carboxamide]
drop in potency [7, 18]: 8 fold
EC50 at 68 h [12]: > 50 µM

EC50 [13]: 0.0017 µM
Compound: O=C(NCCN1CCCC1)c1cc(NCCC2CCOCC2)nc2ccc(F)cc12 [Compound 29, 6-Fluoro-N-(2-(pyrrolidin-1-yl)ethyl)-2-((2-(tetrahydro-2H-pyran-4-yl)ethyl)amino)quinoline-4-carboxamide]
EC50 at 68 h [12]: > 50 µM

Compound: O=C(NCCN1CCCC1)c1cc(-c2ccc(CN3CCOCC3)c(F)c2)nc2ccc(F)cc12 [Compound 40]
pKa [14]: 6.1
inhibition in vivo at 1 mg/kg [6]: > 99%
MLM Cli [15]: 1.0 mL min^–1 g^–1

Compound: O=C(NCCN1CCCC1)c1cc(-c2ccc(CN3CCS(=O)(=O)CC3)cc2)nc2ccc(F)cc12 [Compound 43]
inhibition in vivo at 1 mg/kg [6]: > 99%
MLM Cli [15]: <0.5 mL min^–1 g^–1
RLM Cli [16]: 0.8 mL min^–1 g^–1

MLM Cli [15]: 2.0 mL min^–1 g^–1
HLM Cli [17]: 2 mL min^–1 g^–1
RLM Cli [16]: 0.6 mL min^–1 g^–1
Compound: O=C(NCCN1CCCC1)c1cc(-c2ccc(CN3CCCC3=O)cc2)nc2ccc(F)cc12 [Compound 44]

Papp at 5 h, 10 µM ([1]; pH 7.4, read-out: PAMPA Pe): 15.9 ×10⁻⁶ cm/s
Compound: CC(C)NCC(O)COc1cccc2ccccc12 (centres unmarked) [propanolol, reference compound]

From PMC5108032, “Discovery of a Quinoline-4-carboxamide Derivative with a Novel Mechanism of Action, Multistage Antimalarial Activity, and Potent in Vivo Efficacy” (Journal of Medicinal Chemistry, 2016)
